From US11098058B2, “Bicyclic ketone compounds and methods of use thereof” (Genentech, Inc., priority 2017, dated 2021)

Target: human RIP1 kinase domain (2-375) (Homo sapiens (Human), UniProt Q13546)
Experiment: biochemical
Settings: RIP1 kinase inhibition, tight-binding apparent Ki, 50 nM enzyme, 50 μM ATP, 2 hours incubation
Experimental: RIP1 Kinase Inhibition Assays (Biochemical Assay)
The ability of the receptor interacting protein kinase (RIPK1) to catalyze the hydrolysis of adenosine-5′-triphosphate (ATP) is monitored using the Transcreener ADP (adenosine-5′-diphosphate) assay (BellBrook Labs). Purified human RIP1 kinase domain (2-375) (50 nM) derived from a baculovirus-infected insect cell expression system is incubated with test compounds for 2 hours in 50 mM Hepes buffer (pH 7.5) containing 30 mM MgCl2, 1 mM dithiothreitol, 50 μM ATP, 0.002% Brij-35, and 0.5% dimethyl sulfoxide (DMSO). […] The tracer bound to the antibody is displaced by the ADP generated during the RIP1K reaction, which causes a decrease in fluorescence polarization that is measured by laser excitation at 633 nm with a FP microplate reader M1000. Fractional activity was plotted against test article concentration. Using Genedata Screener software (Genedata; Basel, Switzerland), the data were fit to the tight-binding apparent inhibition constant (Ki^app) Morrison equation [Williams, J. W. and Morrison, J. F. (1979) The kinetics of reversible tight-binding inhibition. […] The following equation was used to calculate fractional activity and Ki^app:
[formula] where [E]T and [I]T are the total concentrations of active enzyme and test article, respectively.

Chain of human RIP1 kinase domain (2-375) (Q13546 2-375): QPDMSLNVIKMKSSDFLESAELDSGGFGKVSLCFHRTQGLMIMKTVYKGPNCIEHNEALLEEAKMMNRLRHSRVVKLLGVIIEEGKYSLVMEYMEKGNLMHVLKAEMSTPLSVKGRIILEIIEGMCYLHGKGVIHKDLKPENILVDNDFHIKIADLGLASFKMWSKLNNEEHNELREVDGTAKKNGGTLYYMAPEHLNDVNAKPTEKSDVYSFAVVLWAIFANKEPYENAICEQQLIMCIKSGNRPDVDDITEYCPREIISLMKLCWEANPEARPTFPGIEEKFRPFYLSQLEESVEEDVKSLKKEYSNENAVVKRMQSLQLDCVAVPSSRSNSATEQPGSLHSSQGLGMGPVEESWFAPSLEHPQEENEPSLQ

Row | Compound | Ki [nM]
1 | O=C(c1nc2n(n1)[C@H](c1ccccc1)C[C@@H]2F)[C@@H]1C[C@H]1C(F)(F)F (racemic) [Example 161, [rac-(5S,7S)-7-fluoro-5-phenyl-6,7-dihydro-5H-pyrrolo[1,2-b][1,2,4]triazol-2-yl]-[rac-(1R,2R)-2-(trifluoromethyl)cyclopropyl]methanone] | 50
2 | O=C(c1nc2n(n1)[C@H](c1ccccc1)C[C@@H]2F)[C@]12COC[C@H]1C2 (racemic) [Example 144, [rac-(5S,7S)-7-fluoro-5-phenyl-6,7-dihydro-5H-pyrrolo[1,2-b][1,2,4]triazol-2-yl]-[rac-(1S,5S)-3-oxabicyclo[3.1.0]hexan-1-yl]methanone] | 230
3 | [2H]C1([2H])C[C@@H](c2ccccc2)n2nc(C(=O)C3CC3)nc21 (single isomer, unassigned) [Example 114] | 18
4 | O=C(c1nc2n(n1)[C@H](c1ccccc1)C[C@@H]2F)[C@@H]1CC12CC2 (racemic) [Example 163, [rac-(5S,7S)-7-fluoro-5-phenyl-6,7-dihydro-5H-pyrrolo[1,2-b][1,2,4]triazol-2-yl]-[rac-(2R)-spiro[2.2]pentan-2-yl]methanone] | 4
5 | O=C(c1nc2n(n1)[C@H](c1ccccc1)C[C@@H]2F)[C@H]1C[C@@H]1C(F)(F)F (racemic) [Example 160, [rac-(5S,7S)-7-fluoro-5-phenyl-6,7-dihydro-5H-pyrrolo[1,2-b][1,2,4]triazol-2-yl]-[rac-(1S,2S)-2-(trifluoromethyl)cyclopropyl]methanone] | 3
6 | O=C(c1nc2n(n1)[C@H](c1ccccc1)C[C@@H]2F)[C@H]1CC12CC2 (racemic) [Example 162, [rac-(5S,7S)-7-fluoro-5-phenyl-6,7-dihydro-5H-pyrrolo[1,2-b][1,2,4]triazol-2-yl]-[rac-(2S)-spiro[2.2]pentan-2-yl]methanone] | 16
7 | O=C(c1nc2n(n1)[C@H](c1ccccc1)C[C@@H]2F)[C@H]1CCCN1 (racemic) [Example 128, [rac-(5S,7S)-7-fluoro-5-phenyl-6,7-dihydro-5H-pyrrolo[1,2-b][1,2,4]triazol-2-yl]-[rac-(2R)-pyrrolidin-2-yl]methanone] | 650

Results, then the compound that gave them:

Row | Ki [nM] | Compound
8 | 160 | N#CC1CC1C(=O)c1nc2n(n1)[C@H](c1ccccc1)C[C@@H]2F (mixture of isomers) [Example 86, 2-[rac-(5S,7S)-7-fluoro-5-phenyl-6,7-dihydro-5H-pyrrolo[1,2-b][1,2,4]triazole-2-carbonyl]-cyclopropanecarbonitrile]
9 | 8 | O=C(c1nc2n(n1)[C@H](c1ccccc1)C[C@@H]2F)C1CCOC1 (mixture of isomers) [Example 130, [rac-(5S,7S)-7-fluoro-5-phenyl-6,7-dihydro-5H-pyrrolo[1,2-b][1,2,4]triazol-2-yl]-tetrahydrofuran-3-yl-methanone]
10 | 13 | N#C[C@@H]1C[C@H]1C(=O)c1nc2n(n1)[C@H](c1ccccc1)C[C@@H]2F (mixture of isomers) [Example 105, rac-(1R,2R)-2-[(5S,7S)-7-fluoro-5-phenyl-6,7-dihydro-5H-pyrrolo[1,2-b][1,2,4]triazole-2-carbonyl]cyclopropanecarbonitrile]
11 | 10 | O=C(c1nc2n(n1)[C@H](c1ccccc1F)CC2)C1CC1 (racemic) [Example 63, cyclopropyl-[rac-(5S)-5-(2-fluorophenyl)-6,7-dihydro-5H-pyrrolo[1,2-b][1,2,4]triazol-2-yl]methanone]
12 | 16 | O=C(c1nc2n(n1)[C@H](c1ccccc1)C[C@@H]2F)C1CCCOC1 (mixture of isomers) [Example 127, [rac-(5S,7S)-7-fluoro-5-phenyl-6,7-dihydro-5H-pyrrolo[1,2-b][1,2,4]triazol-2-yl]-tetrahydropyran-3-yl-methanone]

Same assay, conditions: tight-binding apparent inhibition constant (Ki app, Morrison equation), 50 nM enzyme, 50 μM ATP, 2 hours incubation

Row | Compound | Ki [nM]
13 | CCC(=O)c1nc2n(n1)[C@H](c1ccccc1F)CC2 (racemic) [Example 31, 1-[rac-(5S)-5-(2-fluorophenyl)-6,7-dihydro-5H-pyrrolo[1,2-b][1,2,4]triazol-2-yl]propan-1-one] | 7.39
14 | CC(C)(C#N)C(=O)c1nc2n(n1)[C@H](c1ccccc1)C[C@@H]2F (racemic) [Example 22, 3-(rac-(5S,7S)-7-fluoro-5-phenyl-6,7-dihydro-5H-pyrrolo[1,2-b][1,2,4]triazol-2-yl)-2,2-dimethyl-3-oxo-propanenitrile] | 33.1
15 | Cn1cc(C(=O)c2nc3n(n2)[C@H](c2ccccc2)C[C@@H]3F)cn1 (stereo in doubt) [Example 40, (1-methylpyrazol-4-yl)-[rac-(5S,7S)-7-fluoro-5-phenyl-6,7-dihydro-5H-pyrrolo[1,2-b][1,2,4]triazol-2-yl]methanone] | > 10000
16 | CC(C)(O)C(=O)c1nc2n(n1)[C@@H](c1ccccc1)C[C@H]2F (stereo in doubt) [Example 5, 2-hydroxy-2-methyl-1-[rac-(5R,7R)-7-fluoro-5-phenyl-6,7-dihydro-5H-pyrrolo[1,2-b][1,2,4]triazol-2-yl]propan-1-one] | 23
17 | O=C(c1nc2n(n1)[C@H](c1ccccc1)C[C@@H]2F)c1cccs1 (racemic) [Example 41, (rac-(5S,7S)-7-fluoro-5-phenyl-6,7-dihydro-5H-pyrrolo[1,2-b][1,2,4]triazol-2-yl)-(2-thienyl)methanone] | 26.7
18 | O=C(c1nc2n(n1)[C@H](c1ccccc1)C[C@@H]2F)C1COC1 (racemic) [Example 57, oxetan-3-yl-[rac-(5S,7S)-7-fluoro-5-phenyl-6,7-dihydro-5H-pyrrolo[1,2-b][1,2,4]triazol-2-yl]methanone] | 42.3
19 | CC1(C(=O)c2nc3n(n2)[C@H](c2ccccc2)C[C@@H]3F)CC1 (racemic) [Example 26, (rac-(5S,7S)-7-fluoro-5-phenyl-6,7-dihydro-5H-pyrrolo[1,2-b][1,2,4]triazol-2-yl)-(1-methylcyclopropyl)methanone] | 38

The next lines start with the values.

Row | Ki [nM] | Compound
20 | 12 | O=C(c1nc2n(n1)[C@@H](c1ccccc1)C[C@H]2F)C1CCC1 (racemic) [Example 43, cyclobutyl-[rac-(5R,7R)-7-fluoro-5-phenyl-6,7-dihydro-5H-pyrrolo[1,2-b][1,2,4]triazol-2-yl]methanone]
21 | 0.3 | O=C(c1nc2n(n1)[C@H](c1ccccc1)C[C@@H]2F)C1(F)CC1 (single isomer, unassigned) [Example 61]
22 | 28.7 | O=C(c1nc2n(n1)[C@H](c1ccccc1)C[C@@H]2F)C1(CO)CC1 (racemic) [Example 58, [1-(hydroxymethyl)cyclopropyl]-[rac-(5S,7S)-7-fluoro-5-phenyl-6,7-dihydro-5H-pyrrolo[1,2-b][1,2,4]triazol-2-yl]methanone]
23 | 737 | CCC(=O)c1nc2n(n1)[C@H](c1ccccc1)[C@@H](F)C2 (racemic) [Example 32, 1-[rac-(5R,6S)-6-fluoro-5-phenyl-6,7-dihydro-5H-pyrrolo[1,2-b][1,2,4]triazol-2-yl]propan-1-one]
24 | 416 | Cn1cc(C(=O)c2nc3n(n2)[C@@H](c2ccccc2)C[C@H]3F)cn1 (stereo in doubt) [Example 48, (1-methylpyrazol-4-yl)-[rac-(5R,7R)-7-fluoro-5-phenyl-6,7-dihydro-5H-pyrrolo[1,2-b][1,2,4]triazol-2-yl]methanone]
25 | 12.2 | O=C(Cc1ccccc1)c1nc2n(n1)[C@H](c1ccccc1)C[C@@H]2F (racemic) [Example 7, 2-phenyl-1-[rac-(5S,7S)-7-fluoro-5-phenyl-6,7-dihydro-5H-pyrrolo[1,2-b][1,2,4]triazol-2-yl]ethanone]
